From patent US20050154046A1, “Methods of treating an inflammatory-related disease” (priority 2004, published 2005)
“Also recorded” adds a separate entry of the source.

Legend:
mouse vaginal epithelium = assay: Mitotic index in estrogen-stimulated vaginal epithelium of female mice; format: in vivo, Kunming mice; conditions: 1.0 mg/kg i.p. once a day, 3 days; percent of mitotic cells
From the text: (§1) Materials: Meisoindigo was synthesized, purified and its structure characterized by Natrogen Therapeutics, Inc. The purity of the compound was 98.5% as described in the Examples above. A suspension of Meisoindigo was freshly prepared in 0.5% sodium methylcellulose and given orally for the animal tests described below. Other chemicals used in the following experiments were purchased from Sigma.
(§2) Pathogen-free female Kunming mice at 12 weeks of age with body weights from 22 to 25 grams were housed 5 per cage, and given, ad libitum, fresh tap water and commercial rodent pellets. Animal rooms were controlled at 24±2° C. with a relative humidity of 60±5% and a 12 hour light/dark cycle (07:00-19:00 hr).
Anti-mitotic Effects of Meisoindigo on Mouse Vaginal Epithelium: Sixty Kunming female mice were randomly divided into 5 groups, 20 in one control group, and 10 in 4 drug-tested groups. All mice were given estrogen at a dose of 0.2 mg/animal for 3 days to allow vaginal epithelial cells to develop under the stimulation of estrogen hormone. Meisoindigo was freshly prepared as a suspension in 0.5% of sodium methylcellulose. The drug was given orally at doses of 50, 100, and 200 mg/kg, respectively, once a day for 3 days. Methotrexate (MTX) was used as a positive control at a dose of 1 mg/kg, i.p. once a day for the same period of time. […] The mitotic index (percent of mitotic cells) was calculated.

[1] = test system: scale epithelial cells of mouse-tails; assay: Mouse-tail model: granular layer formation in scale epithelial cells; format: in vivo, Kunming mice; conditions: 1.0 mg/kg i.p. once every 2 days, 13 days
From the text: as §1, §2
Effect of Meisoindigo on Epidermal Cell Differentiation in Mouse Tails: Sixty female Kunming mice were randomly divided into 5 groups, 20 in one control group, and 10 in 4 drug-tested groups. Meisoindigo was freshly prepared as a suspension in 0.5% of sodium methylcellulose. The drug was given orally at doses of 50, 100, and 200 mg/kg, respectively, once a day for 13 days. Methotrexate (MTX) was used as a positive control at a dose of 1 mg/kg, i.p. once every 2 days, for the same period of time. The same volume and vehicle for Meisoindigo suspension were used as a negative control. […] Slides were prepared for histological examination as originally described by Bosman et. al., (106). The slides were prepared by cutting the tails into longitudinal sections, and Hematoxylin and Eosin (H&E) stained. The slides were then examined with a light microscope to evaluate the degree of orthokeratosis (OK) and epidermal hyperplasia. The former was done by measuring the horizontal length of the fully developed granular layer stratum granulosum within an individual scale in relation to its total length. Drug activity was defined by the increase of the positive scale cells containing granular layer stratum granulosum between two folliculus pili.

[2] = biological target: T1, glycogen synthase kinase-3β (GSK-3β) (Homo sapiens, UniProt P49841); assay: Effect on glycogen synthase kinase-3β in cells; format: cell-based; conditions: as high as 50 μM; data not shown
T1 construct: endogenous in cells
T1 sequence (P49841 whole entry): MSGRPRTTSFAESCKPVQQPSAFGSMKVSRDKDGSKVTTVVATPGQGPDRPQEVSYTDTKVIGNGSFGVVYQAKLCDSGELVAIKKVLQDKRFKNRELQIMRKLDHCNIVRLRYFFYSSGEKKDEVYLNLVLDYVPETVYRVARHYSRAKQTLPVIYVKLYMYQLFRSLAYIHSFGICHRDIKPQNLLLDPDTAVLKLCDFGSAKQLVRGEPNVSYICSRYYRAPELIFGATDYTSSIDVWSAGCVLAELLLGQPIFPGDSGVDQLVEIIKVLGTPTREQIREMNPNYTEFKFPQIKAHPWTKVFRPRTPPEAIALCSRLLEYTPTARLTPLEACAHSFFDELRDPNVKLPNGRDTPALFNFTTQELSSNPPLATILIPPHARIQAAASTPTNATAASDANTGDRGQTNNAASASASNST

cdk4/6 = assay: Cyclin dependent kinase activity in THP-1 cells (immunoprecipitation, histone H1 phosphorylation); format: cell-based, human; conditions: 31.25 and 62.5 nM, 24 h
Description: (§3) 2) Effects of Meisoindigo and/or NATURA on activity of cyclin dependent kinases (CDK) in THP-1 cells (99): THP-1 cells grown exponentially were exposed to […] of Meisoindigo or NATURA for 24 hr, respectively.
(§4) The cells were harvested, washed, and total proteins extracted as described previously (100). One hundred μg of the proteins were immuno-precipitated using antibodies against either cdk2, cdk4/6 or cyclin D1 overnight at 4° C. in the presence of a cocktail of protease inhibitors. The immuno-precipitates were washed 4 times with protein extraction buffer and once with kinase assay buffer, and reacted with […] histone H1 in the presence of [γ-^32P]-ATP (10 μCi/10 μM). The phosphorylated histone H1 (represent cdk activity) was measured by scintillation counting or by SDS-polyacrylaimde gel electrophoresis (101, 102).

IL-1β = IL-1β secretion (ELISA) in LPS-stimulated THP-1 cells; format: cell-based, human; conditions: as low as 31.25 nM (31.25 and 62.5 nM in FIG. 6), 24 h
Description: It was prepared in a solution of dimethyl sulfoxide (DMSO), and stored under −20° C. for the experiments in vitro. Human monocytic cell line, THP-1 (90), was purchased from ATCC. The cells were maintained according to the supplier's instructions. Approximately 1×10^5 cells/ml were cultured at 37° C., 5% CO2 for 24 hours in Modified RPMI-1640 Medium (Invitrogen) supplemented with 10% FBS.
Viability of cells was examined under microscope after trypan blue staining. Protein levels of IL-1β secreted into the culture media by the cells were then measured by ELISA and calculated from its standard curve using an assay Kit from R&D Systems according to instructions provided by the supplier.
Statistical Analysis: All data were expressed as a mean±SD. Statistical significance of any difference between the control (LPS) and experimental groups was determined by the Student's t-test. P values between the 2 groups must be at least smaller than 0.05 to be considered statistically significant.
(§5) 1) Effects of Meisoindigo and NATURA on the expression/secretion of cytokines IL-1β, IL-6, IL-10: The human monocytic THP-1 cells grown exponentially were stimulated with or without 1 μM of lipopolysaccharide (LPS, Sigma), and exposed for 24 hours to different concentrations of Meisoindigo and NATURA (from 31.25 nM and 62.5 nM), respectively. Viability of cells was examined by trypan blue exception assay.

IL-6 = IL-6 secretion (ELISA) in LPS-stimulated THP-1 cells; format: cell-based, human; conditions: as low as 31.25 nM (31.25 and 62.5 nM in FIG. 6), 24 h
Description: (§6) Viability of cells was examined under microscope after trypan blue staining.
Standard IL-6 protein was used to establish a standard curve for the calculation of IL-6 in the medium secreted by the cells (LPS-stimulated or non-stimulated cells in the presence or absence of Meisoindigo).
as §5

cyclin D1 = assay: Cyclin D1 levels in THP-1 cells; format: cell-based, human; conditions: 31.25 and 62.5 nM, 24 h; data not shown
IL-10 = IL-10 secretion (ELISA) in THP-1 cells; format: cell-based, human
From the text: as §6
Viability of cells was examined by trypan blue exception assay.

CDK2 = biological target: T2, CDK2 (Homo sapiens, UniProt P24941); assay: Cyclin dependent kinase activity in THP-1 cells (immunoprecipitation, histone H1 phosphorylation); format: cell-based; conditions: 24 h
T2 construct: endogenous in cells; host or cells: THP-1
Description: as §3, §4

activity on GSK-3β [2] | partial inhibition of CDK activity (CDK2; 1.5 μM, FIG. 6B) [%] | SMILES | Mitotic Index (X ± SD) (mouse vaginal epithelium) | Granulous Scales (X ± SD) [1] | inhibition of cyclin dependent kinase 4 and 6 activity (cdk4/6) | effect on IL-1β production (IL-1β) | effect on IL-6 production/secretion (IL-6) | effect on levels of cyclin D1 (cyclin D1) | effect on IL-10 production (IL-10; 31.25 and 62.5 nM, 24 h) | elevation of LPS-suppressed IL-10 (IL-10; similar concentrations (as low as 31.25 nM), FIG. 6A) [fold] | inhibition of CDK2 activity (CDK2; 31.25 and 62.50 nM)
 |  | CN(Cc1cnc2nc(N)nc(N)c2n1)c1ccc(C(=O)N[C@@H](CCC(=O)O)C(=O)O)cc1 [MTX, Methotrexate, reference compound] | 14.76±4.29 | 17.22 ± 4.92 |  |  |  |  |  |  | 
no activity was observed | 23 | CC(=O)OC1COC(N2C(=O)/C(=C3/C(=O)Nc4ccccc43)c3ccccc32)C(OC(C)=O)C1OC(C)=O (centres unmarked) [NATURA] |  |  | failed to inhibit | significantly inhibit | significantly inhibit | failed to inhibit | promoted production | ~2 | failed to inhibit; also recorded: no inhibitory effect
